The subject of data set [1] is production of prostaglandin E2 (PGE2). The experiment in a line: Production of prostaglandin E2 (PGE2) in cultures of mouse peritoneal cells stimulated with LPS (ELISA kit). Format: cell-based, mice. The conditions noted are these: Table 3B, 6 h. A digest of the protocol:
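C57BL/6 mouse peritoneal cells (3×10^6/mL) stimulated with LPS (10 ng/mL). PGE2 measured by ELISA.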

Data set [2] deals with production of nitric oxide (NO). In words: Production of nitric oxide (NO) in cultures of mouse peritoneal cells stimulated with IFN-γ plus LPS (Griess reagent). Format: cell-based, mice. The conditions noted are these: Table 3B; substance 50 μmol·l^−1; IFN-g plus LPS; 24 h. The method in brief:
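C57BL/6 mouse peritoneal cells (2×10^6/mL) stimulated with IFN-γ (5000 pg/mL) plus LPS (100 pg/mL), compounds at 50 μmol·l^−1. Nitrite measured by Griess reagent after 24 h, expressed as % of stimulated control (set 100%); IC50 is concentration reducing NO by 50%.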

For a further data set, the system named is peritoneal cells of mice. The experiment in a line: Cell viability of mouse peritoneal cells (WST-1 kit). It is filed as cell-based. The note with it: Table 3B, substance 50 μmol·l^−1, 24 h. A digest of the protocol: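 C57BL/6 mouse peritoneal cells (1×10^6/mL) cultured 24 h with compounds at 50 μmol·l^−1. Viability read with WST-1 tetrazolium salt and expressed as percent of untreated control cells (100%).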

SMILES strings stand for the structures.

`CCC(C)c1c(I)nc(N)nc1I` (stereo not drawn) [Substance 36, 2-amino-5-(sec-butyl)-4,6-diiodopyrimidine] came in with a melting point of 173 to 174 °C.

For `O=CNc1nc(Cl)c(Cc2ccccc2)c(Cl)n1` [Substance 59, 5-benzyl-4,6-dichloro-2-formamidopyrimidine], the melting point was in the range of 93 to 95 °C.

Compound `CCCCc1c(Cl)nc(N)nc1Cl` [Substance 28, 2-amino-5-butyl-4,6-dichloropyrimidine] came in with a melting point of 169 to 170 °C.

On to `[2H]C([2H])([2H])C([2H])([2H])C([2H])([2H])C([2H])([2H])c1c(Cl)nc(N)nc1Cl` [Substance 35, 2-amino-5-(perdeutero-butyl)-4,6-dichloropyrimidine], for which the melting point was in the range of 170 to 171 °C.

`CCCCc1c(Cl)nc(/N=C/N(C)C)nc1Cl` [Substance 19, 5-butyl-4,6-dichloro-2-{[(dimethylamino)methylene]amino}pyrimidine] returned a melting point of 65 to 67 °C.

Turning to `CCCc1c(Cl)nc(/N=C/N(C)C)nc1Cl` [Substance 15, 4,6-dichloro-2-{[(dimethylamino)methylene]amino}-5-propylpyrimidine], the melting point lay in the range of 76 to 78 °C.

For the compound `CCc1c(Cl)nc(NC=O)nc1Cl` [Substance 49, 4,6-dichloro-5-ethyl-2-formamidopyrimidine], the melting point lay in the range of 116 to 118 °C.

`CCCCc1c(-c2ccccc2)nc(N)nc1-c1ccccc1` [Substance 45, 2-amino-5-butyl-4,6-diphenylpyrimidine] registered a melting point of 154 to 155 °C.

Compound `CN(C)/C=N/c1nc(Cl)c(-c2ccccc2)c(Cl)n1` [Substance 24, 4,6-dichloro-2-{[(dimethylamino)methylene]amino}-5-phenylpyrimidine] came in with a melting point of 67 to 68 °C.

On to `C#CCc1c(Cl)nc(NC=O)nc1Cl` [Substance 58, 4,6-dichloro-2-formamido-5-(prop-2-yn-1-yl)pyrimidine], for which the melting point was 127 to 128 °C.

The compound `C#CCc1c(Cl)nc(/N=C/N(C)C)nc1Cl` [Substance 18, 4,6-dichloro-2-{[(dimethylamino)methylene]amino}-5-(prop-2-yn-1-yl)pyrimidine] came in with a melting point of 82 to 83 °C.

`Nc1nc(I)c(Cc2ccccc2)c(I)n1` [Substance 38, 2-amino-5-benzyl-4,6-diiodopyrimidine] yielded a melting point of 198 to 199 °C.

The compound `C=CCc1c(Cl)nc(/N=C/N(C)C)nc1Cl` [Substance 17, 5-allyl-4,6-dichloro-2-{[(dimethylamino)methylene]amino}pyrimidine] displayed a melting point of 80 to 81 °C.

In the case of `CCCCc1c(Cl)nc(NC=O)nc1Cl` [Substance 51, 5-butyl-4,6-dichloro-2-formamidopyrimidine], the melting point was in the range of 82 to 83 °C.

The compound `Nc1nc(Cl)c(Cc2ccccc2)c(Cl)n1` [Substance 34, 2-amino-5-benzyl-4,6-dichloropyrimidine] registered a melting point of 196 to 197 °C.

The compound `C=CCc1c(Cl)nc(N)nc1Cl` [Substance 32, 5-allyl-2-amino-4,6-dichloropyrimidine] had a melting point of 175 to 177 °C.

Take `CCCCc1c(Cl)nc(N)nc1-c1ccsc1` [Substance 42, 2-amino-5-butyl-4-chloro-6-(thiophen-3-yl)pyrimidine]: the melting point was 154 to 155 °C.

Compound `C=C(Cl)Cc1c(Cl)nc(NC=O)nc1Cl` [Substance 60, 4,6-dichloro-5-(2-chloroallyl)-2-formamidopyrimidine] yielded a melting point of 113 to 115 °C.

For `CN(C)/C=N/c1nc(Cl)c(Cc2ccccc2)c(Cl)n1` [Substance 23, 5-benzyl-4,6-dichloro-2-{[(dimethylamino)methylene]amino}pyrimidine], the melting point fell in the range of 63 to 65 °C.

In the case of `CCCCc1c(Cl)nc(N)nc1-c1ccccc1` [Substance 41, 2-amino-5-butyl-4-chloro-6-phenylpyrimidine], the melting point lay in the range of 183 to 185 °C.

Regarding `CCc1c(Cl)nc(/N=C/N(C)C)nc1Cl` [Substance 14, 4,6-dichloro-5-ethyl-2-{[(dimethylamino)methylene]amino}pyrimidine], the melting point is 78 to 80 °C.

For `C=CCc1c(Cl)nc(NC=O)nc1Cl` [Substance 57, 5-allyl-4,6-dichloro-2-formamidopyrimidine], the melting point lay within 85 to 86 °C.

As for `CCCCc1c(-c2cc3ccccc3o2)nc(N)nc1-c1cc2ccccc2o1` [Substance 47, 2-amino-4,6-bis(benzofuran-2-yl)-5-butylpyrimidine], the melting point was in the range of 142 to 144 °C.

In the case of `CCCCc1c(Cl)nc(N(C)C)nc1Cl` [Substance 63, 5-butyl-4,6-dichloro-2-(dimethylamino)pyrimidine], the melting point lay in the range of 42 to 45 °C.

With `CCCc1c(Cl)nc(N)nc1Cl` [Substance 27, 2-amino-4,6-dichloro-5-propylpyrimidine], the melting point lay in the range of 182 to 183 °C.

Compound `CCC(C)c1c(Cl)nc(NC=O)nc1Cl` (stereo not drawn) [Substance 54, 5-(sec-butyl)-4,6-dichloro-2-formamidopyrimidine] returned a melting point of 92 to 93 °C.

Turning to `C#CCc1c(Cl)nc(N)nc1Cl` [Substance 33, 2-amino-4,6-dichloro-5-(prop-2-yn-1-yl)pyrimidine], the melting point lay in the range of 159 to 161 °C.

`CCCCc1c(-c2cccnc2)nc(N)nc1-c1cccnc1` [Substance 46, 2-amino-5-butyl-4,6-bis(pyridin-3-yl)pyrimidine]: the melting point fell in the range of 173 to 174 °C.

Take `CCC(C)c1c(Cl)nc(N)nc1Cl` (stereo not drawn) [Substance 30, 2-amino-5-(sec-butyl)-4,6-dichloropyrimidine]: the melting point lay in the range of 159 to 160 °C.

On to `CCCCc1c(Cl)nc(N)nc1-c1cccnc1` [Substance 43, 2-amino-5-butyl-4-chloro-6-(pyridin-3-yl)pyrimidine], for which the melting point lay within 189 to 190 °C.

Compound `CC(C)c1c(Cl)nc(NC=O)nc1Cl` [Substance 53, 4,6-dichloro-2-formamido-5-isopropylpyrimidine] came in with a melting point of 95 to 96 °C.

Turning to `CCCc1c(Cl)nc(NC=O)nc1Cl` [Substance 50, 4,6-dichloro-2-formamido-5-propylpyrimidine], the melting point lay within 92 to 94 °C.

Regarding `CCCCCCc1c(Cl)nc(NC=O)nc1Cl` [Substance 55, 4,6-dichloro-2-formamido-5-hexylpyrimidine], the melting point lay in the range of 80 to 81 °C.

For `Cc1c(Cl)nc(NC=O)nc1Cl` [Substance 48, 4,6-dichloro-2-formamido-5-methylpyrimidine], the melting point lay within 123 to 124 °C.

For the compound `[2H]C([2H])([2H])C([2H])([2H])C([2H])([2H])C([2H])([2H])c1c(Cl)nc(NC=O)nc1Cl` [Substance 52, 5-(perdeutero-butyl)-4,6-dichloro-2-formamidopyrimidine], the melting point was 83 to 84 °C.

Compound `Nc1nc(Br)c(Cc2ccccc2)c(Br)n1` [Substance 40, 2-amino-5-benzyl-4,6-dibromopyrimidine] returned a melting point of 154 to 155 °C.

For `CCCCc1c(-c2ccoc2)nc(N)nc1-c1ccoc1` [Substance 105], the “Production of prostaglandins IC50 (μmol · 1^−1) average value and range of values” (shortened to “Production of prostaglandins IC50”) in data set [1] is 50.30 ± 9.52; n = 4 μmol · 1^−1. The “Production of nitric oxide in % of the controls” value in data set [2] is 49.07 ± 4.67; n = 4 % of the controls. Also, in the data set with peritoneal cells of mice, the “Cell viabilities in % of the controls” value was 101.86 ± 5.13; n = 4 % of the controls.

Turning to `CCCCc1c(-c2ccccc2)nc(N)nc1-c1ccc(OC)cc1` [Substance 72], the “Production of prostaglandins IC50” value in data set [1] is 3.61 ± 0.22; n = 4 μmol · 1^−1. Besides, the “Production of nitric oxide in % of the controls” value in data set [2] was 55.45 ± 12.92; n = 6 % of the controls. In the data set with peritoneal cells of mice, the “Cell viabilities in % of the controls” value is 108.35 ± 5.66; n = 8 % of the controls.

Turning to `CCCCc1c(-c2ccc(OC)cc2)nc(N)nc1-c1ccoc1` [Substance 104], the “Production of prostaglandins IC50” value in data set [1] is 57.52 ± 12.44; n = 6 μmol · 1^−1. In addition, the “Production of nitric oxide in % of the controls” value in data set [2] is 71.20 ± 2.85; n = 6 % of the controls. In addition, the “Cell viabilities in % of the controls” value with peritoneal cells of mice was 137.10 ± 2.72; n = 12 % of the controls.

`CCCCc1c(Cl)nc(NCc2ccccc2)nc1Cl` [Substance 145]: the “Production of prostaglandins IC50” value in data set [1] was 0.28 ± 0.23; n = 4 μmol · 1^−1. The “Production of nitric oxide in % of the controls” value in data set [2] was 93.01 ± 9.25; n = 6 % of the controls. For the same compound, the “Cell viabilities in % of the controls” value with peritoneal cells of mice is reported as 147.31 ± 4.88; n = 8 % of the controls.

As to `CCCCc1c(-c2ccc(OC)cc2)nc(N)nc1-c1cc2ccccc2o1` [Substance 117], the “Production of prostaglandins IC50” value in data set [1] is 64.65 ± 4.88; n = 2 μmol · 1^−1. In addition, the “Production of nitric oxide in % of the controls” value in data set [2] is 89.91 ± 4.02; n = 6 % of the controls. Moreover, the “Cell viabilities in % of the controls” value in the data set with peritoneal cells of mice is 75.92 ± 9.72; n = 8 % of the controls.

Consider `CCCCc1c(Cl)nc(NCc2ccco2)nc1Cl` [Substance 144], for which the “Production of prostaglandins IC50” value in data set [1] was 0.20 ± 0.33; n = 4 μmol · 1^−1. In addition, the “Production of nitric oxide in % of the controls” value in data set [2] was 83.33 ± 11.72; n = 6 % of the controls. Further, in the data set with peritoneal cells of mice, the “Cell viabilities in % of the controls” value is 150.27 ± 4.96; n = 8 % of the controls.

Turning to `CCCCc1c(-c2ccccc2)nc(N)nc1-c1cccnc1` [Substance 78], the “Production of prostaglandins IC50” value in data set [1] is 59.49 ± 9.09; n = 2 μmol · 1^−1. Moreover, the “Production of nitric oxide in % of the controls” value in data set [2] is recorded as 52.81 ± 2.91; n = 4 % of the controls. For the same compound, the “Cell viabilities in % of the controls” value in the data set on peritoneal cells of mice was 78.08 ± 5.20; n = 4 % of the controls.

Values taken from patent US8883798B2, “Pyrimidine compounds inhibiting the formation of nitric oxide and prostaglandin E2, method of production thereof and use thereof” (Ustav Organicke Chemie a Biochemie Akademie Ved CR, V.V.I., priority 2011, dated 2014).
